# Data published in PMC3553074 (PLoS ONE, 2013).
# Biological target: Ft-MglA/Ft-SspA complex (Francisella tularensis, UniProt Q5NFG1+Q5NHJ6)
# Sequence (Q5NFG1 1-205): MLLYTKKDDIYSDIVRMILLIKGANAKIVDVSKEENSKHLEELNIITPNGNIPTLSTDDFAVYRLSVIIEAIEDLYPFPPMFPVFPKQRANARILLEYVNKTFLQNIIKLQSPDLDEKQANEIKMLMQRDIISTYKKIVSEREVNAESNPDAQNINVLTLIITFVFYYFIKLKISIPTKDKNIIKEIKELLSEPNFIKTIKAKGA
# Sequence (Q5NHJ6 1-210): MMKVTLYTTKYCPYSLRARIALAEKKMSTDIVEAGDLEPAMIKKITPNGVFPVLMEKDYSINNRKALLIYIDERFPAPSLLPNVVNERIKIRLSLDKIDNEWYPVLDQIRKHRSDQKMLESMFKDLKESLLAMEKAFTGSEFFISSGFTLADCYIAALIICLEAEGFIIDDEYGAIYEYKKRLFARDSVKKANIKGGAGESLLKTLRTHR
compound,measurement,value
CCN(CC)CCCC(C)Nc1c2ccc(Cl)cc2nc2ccc(OC)cc12 (stereo not shown) [quinacrine],ΔTm (Tm1),24.0 °C
